# Measurements from US6358885B1, “Substituted phenylheterocyclic herbicides” (Mississippi State University, priority 1992, dated 2002).
# Experiments:
# [1] = test system: soybean; test: Test B preemergence/postemergence greenhouse plant response rating 0 to 10; type: in vivo, Glycine max; conditions: 0 to 10 scale
# In short: (§1)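 Postemergence treatment of plants two to eighteen cm tall ran alongside preemergence treatment of planted seed, each using compound in a non-phytotoxic solvent.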
# [2] = test system: soybean; test: Test C preemergence/postemergence greenhouse plant response rating 0 to 100; type: in vivo, Glycine max; conditions: POSTEMERGENCE; for Plant response rating, Soybean: 0 to 100 scale
# In short: (§2)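 Compounds in non-phytotoxic solvent went onto sandy loam before emergence (seeded one day earlier) or onto plants at the one-to-four leaf stage. Duck salad was treated via flood water (~2.5 cm, maintained) over silt loam.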
# [3] = test system: cheatgrass; test: Test B preemergence/postemergence greenhouse plant response rating 0 to 10; type: in vivo, Bromus secalinus; conditions: 0 to 10 scale
# In short: as §1
# [4] = test system: wild buckwheat; test: Test C preemergence/postemergence greenhouse plant response rating 0 to 100; type: in vivo, Polygonum convolvulus; conditions: POSTEMERGENCE; for Plant response rating, Wild buckwheat: 0 to 100 scale
# In short: as §2
# [5] = test system: chickweed; test: as above; type: in vivo, Stellaria media; conditions: POSTEMERGENCE; for Plant response rating, Chickweed: 0 to 100 scale
# In short: as §2
# [6] = test system: giant foxtail; test: Test B preemergence/postemergence greenhouse plant response rating 0 to 10; type: in vivo, Setaria faberii; conditions: 0 to 10 scale
# In short: as §1
# [7] = test system: rape; test: as above; type: in vivo, Brassica napus; conditions: 0 to 10 scale
# In short: as §1
# [8] = test system: lambsquarters; test: Test C preemergence/postemergence greenhouse plant response rating 0 to 100; type: in vivo, Chenopodium album; conditions: POSTEMERGENCE; for Plant response rating Lambsquarters: 0 to 100 scale
# In short: as §2
# [9] = test system: crabgrass; test: Test B preemergence/postemergence greenhouse plant response rating 0 to 10; type: in vivo, Digitaria spp.; conditions: 0 to 10 scale
# In short: as §1
# [10] = test system: barley; test: Test C preemergence/postemergence greenhouse plant response rating 0 to 100; type: in vivo, Hordeum vulgare; conditions: POSTEMERGENCE; for Plant response rating Barley Igri: 0 to 100 scale
# In short: as §2
# [11] = test system: pigweed; test: as above; type: in vivo, Amaranthusretroflexus; conditions: POSTEMERGENCE; for Plant response rating Pigweed: 0 to 100 scale
# In short: as §2
# [12] = test system: sugar beet; test: as above; type: in vivo, Beta vulgaris; conditions: POSTEMERGENCE; for Plant response rating, Sugar beet: 0 to 100 scale
# In short: as §2
# [13] = test system: purple nutsedge; test: Test B preemergence/postemergence greenhouse plant response rating 0 to 10; type: in vivo, Cyperus rotundus; conditions: 0 to 10 scale
# In short: as §1
# [14] = test system: blackgrass; test: as above; type: in vivo, Alopecurus myosuroides; conditions: 0 to 10 scale
# In short: as §1
# [15] = test system: velvetleaf; test: as above; type: in vivo, Abutilon theophrasti; conditions: 0 to 10 scale
# In short: as §1
# [16] = test system: ryegrass; test: Test C preemergence/postemergence greenhouse plant response rating 0 to 100; type: in vivo, Lolium multiflorum; conditions: POSTEMERGENCE; for Plant response rating Ryegrass: 0 to 100 scale
# In short: as §2
# [17] = test system: lambsquarters; test: Test B preemergence/postemergence greenhouse plant response rating 0 to 10; type: in vivo, Chenopodium album; conditions: 0 to 10 scale
# In short: as §1
# [18] = test system: barley; test: as above; type: in vivo, Hordeum vulgare; conditions: 0 to 10 scale
# In short: as §1
smiles,measurement,setting,value
Fc1cc(Cl)c(OCCCl)cc1-c1nn2c(c1Cl)CCCC2 [Compound 49],"Plant response rating, Soybean","[1]; POSTEMERGENCE, Rate 50 g/ha",8
same,"Plant response rating, Soybean","[1]; PREEMERGENCE, Rate 50 g/ha",0
same,"Plant response rating, Soybean","[1]; Rate 200 g/ha, POSTEMERGENCE",8
same,"Plant response rating, Soybean","[1]; Rate 200 g/ha, PREEMERGENCE",3
same,"Plant response rating, Soybean",[2]; 62 g/ha,70
same,"Plant response rating, Soybean",[2]; 250 g/ha,80
same,"Plant response rating (0 to 100), Soybean",[2]; Rate 4 g/ha,40
same,"Plant response rating (0 to 100), Soybean",[2]; Rate 16 g/ha,50
same,"Plant response rating, Cheatgrass","[3]; POSTEMERGENCE, Rate 50 g/ha",4
same,"Plant response rating, Cheatgrass","[3]; POSTEMERGENCE, Rate 200 g/ha",7
same,"Plant response rating, Cheatgrass","[3]; PREEMERGENCE, Rate 50 g/ha",0
same,"Plant response rating, Cheatgrass","[3]; Rate 200 g/ha, PREEMERGENCE",2
same,"Plant response rating, Wild buckwheat",[4]; 62 g/ha,100
same,"Plant response rating, Wild buckwheat",[4]; 250 g/ha,100
same,"Plant response rating (0 to 100), Wild buckwheat",[4]; Rate 4 g/ha,100
same,"Plant response rating (0 to 100), Wild buckwheat",[4]; Rate 16 g/ha,100
same,"Plant response rating, Chickweed",[5]; 62 g/ha,50
same,"Plant response rating, Chickweed",[5]; 250 g/ha,80
same,"Plant response rating (0 to 100), Chickweed",[5]; Rate 4 g/ha,20
same,"Plant response rating (0 to 100), Chickweed",[5]; Rate 16 g/ha,50
same,"Plant response rating, Giant foxtail","[6]; POSTEMERGENCE, Rate 50 g/ha",4
same,"Plant response rating, Giant foxtail","[6]; PREEMERGENCE, Rate 50 g/ha",4
same,"Plant response rating, Giant foxtail","[6]; Rate 200 g/ha, POSTEMERGENCE",6
same,"Plant response rating, Giant foxtail","[6]; Rate 200 g/ha, PREEMERGENCE",10
same,"Plant response rating, Rape","[7]; POSTEMERGENCE, Rate 50 g/ha",7
same,"Plant response rating, Rape","[7]; PREEMERGENCE, Rate 50 g/ha",1
same,"Plant response rating, Rape","[7]; Rate 200 g/ha, POSTEMERGENCE",6
same,"Plant response rating, Rape","[7]; Rate 200 g/ha, PREEMERGENCE",6
same,Plant response rating Lambsquarters,[8]; 62 g/ha,100
same,Plant response rating Lambsquarters,[8]; 250 g/ha,100
same,"Plant response rating (0 to 100), Lambsquarters",[8]; Rate 4 g/ha,100
same,"Plant response rating (0 to 100), Lambsquarters",[8]; Rate 16 g/ha,100
same,"Plant response rating, Crabgrass","[9]; POSTEMERGENCE, Rate 50 g/ha",4
same,"Plant response rating, Crabgrass","[9]; PREEMERGENCE, Rate 50 g/ha",0
same,"Plant response rating, Crabgrass","[9]; Rate 200 g/ha, PREEMERGENCE",5
same,Plant response rating Barley Igri,[10]; 62 g/ha,40
same,Plant response rating Barley Igri,[10]; 250 g/ha,60
same,"Plant response rating (0 to 100), Barley Igri",[10]; Rate 4 g/ha,10
same,"Plant response rating (0 to 100), Barley Igri",[10]; Rate 16 g/ha,20
same,Plant response rating Pigweed,[11]; 62 g/ha,100
same,Plant response rating Pigweed,[11]; 250 g/ha,100
same,"Plant response rating (0 to 100), Pigweed",[11]; Rate 4 g/ha,70
same,"Plant response rating (0 to 100), Pigweed",[11]; Rate 16 g/ha,100
same,"Plant response rating, Sugar beet",[12]; 62 g/ha,100
same,"Plant response rating, Sugar beet",[12]; 250 g/ha,100
same,"Plant response rating (0 to 100), Sugar beet",[12]; Rate 4 g/ha,100
same,"Plant response rating (0 to 100), Sugar beet",[12]; Rate 16 g/ha,100
same,"Plant response rating, Nutsedge","[13]; POSTEMERGENCE, Rate 50 g/ha",2
same,"Plant response rating, Nutsedge","[13]; PREEMERGENCE, Rate 50 g/ha",0
same,"Plant response rating, Nutsedge","[13]; Rate 200 g/ha, POSTEMERGENCE",6
same,"Plant response rating, Nutsedge","[13]; Rate 200 g/ha, PREEMERGENCE",0
same,"Plant response rating, Blackgrass","[14]; POSTEMERGENCE, Rate 50 g/ha",4
same,"Plant response rating, Blackgrass","[14]; POSTEMERGENCE, Rate 200 g/ha",6
same,"Plant response rating, Blackgrass","[14]; PREEMERGENCE, Rate 50 g/ha",0
same,"Plant response rating, Blackgrass","[14]; Rate 200 g/ha, PREEMERGENCE",2
same,"Plant response rating, Velvetleaf","[15]; POSTEMERGENCE, Rate 50 g/ha",9
same,"Plant response rating, Velvetleaf","[15]; PREEMERGENCE, Rate 50 g/ha",0
same,"Plant response rating, Velvetleaf","[15]; Rate 200 g/ha, POSTEMERGENCE",10
same,"Plant response rating, Velvetleaf","[15]; Rate 200 g/ha, PREEMERGENCE",1
same,Plant response rating Ryegrass,[16]; 62 g/ha,50
same,Plant response rating Ryegrass,[16]; 250 g/ha,60
same,"Plant response rating (0 to 100), Ryegrass",[16]; Rate 4 g/ha,20
same,"Plant response rating (0 to 100), Ryegrass",[16]; Rate 16 g/ha,40
same,"Plant response rating, Lambsquarter","[17]; PREEMERGENCE, Rate 50 g/ha",10
same,"Plant response rating, Lambsquarter","[17]; Rate 200 g/ha, POSTEMERGENCE",10
same,"Plant response rating, Lambsquarter","[17]; Rate 200 g/ha, PREEMERGENCE",10
same,"Plant response rating, Barley","[18]; POSTEMERGENCE, Rate 50 g/ha",4
same,"Plant response rating, Barley","[18]; POSTEMERGENCE, Rate 200 g/ha",5
same,"Plant response rating, Barley","[18]; PREEMERGENCE, Rate 50 g/ha",0
same,"Plant response rating, Barley","[18]; Rate 200 g/ha, PREEMERGENCE",0
